Experimental data as given in ChEMBL document CHEMBL1201862, “PubChem BioAssay data set” (2004).
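Results reflect a 48-hour exposure of cells in 96-well plates to compound at five concentrations. At the GI50, growth is halved.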 Active and inactive are the calls of the source. No stated cut-off is given here; in the data, active = GI50 up to about 1.1 µM and inactive = higher.

Assays:
Test in all cases: DTP human tumour cell line panel, 48 h
BT-549 = tested on: BT-549
M19-MEL = tested on: M19-MEL
HOP-18 = tested on: HOP-18
DLD-1 = tested on: DLD-1
SNB-78 = tested on: SNB-78
DMS-114 = tested on: DMS-114
XF498 = tested on: XF498
KM-20L2 = tested on: KM-20L2
RXF 631 = tested on: RXF 631

SMILES | GI50 (BT-549) | GI50 (M19-MEL) | GI50 (DLD-1) | GI50 (SNB-78) | GI50 (KM-20L2) | further results
c1ccc2c(c1)nc1n2CCSC1 | > 100 µM (inactive) | – | – | – | – | –
COC1=C2C[C@](OC)(C#CC=CC#CC2O)CC1(C)C (stereo partly specified) | > 100 µM (inactive) | – | – | – | – | –
Clc1ccc(C2=NOC(C3CCCCC3)C2)cc1 (stereo unspecified) | – | > 100 µM (inactive) | > 100 µM (inactive) | > 100 µM (inactive) | – | GI50 (HOP-18): > 100 µM (inactive); GI50 (DMS-114): > 100 µM (inactive)
CCOc1cc2c(cnc3c4cc(OC)c(OC)cc4ccc23)cc1OC | – | > 100 µM (inactive) | > 100 µM (inactive) | – | > 100 µM (inactive) | GI50 (XF498): > 100 µM (inactive); GI50 (DMS-114): > 100 µM (inactive)
CCn1c(SCC(=O)NNC(=S)Nc2ccc([N+](=O)[O-])cc2)nc2ccccc2c1=O | 53.8 µM (inactive) | – | – | – | – | –
CCOC(=O)n1cncc1CC(NC(=O)Cc1c(C(=O)C=C(C)C)[nH]c2ccccc12)C(=O)OC (stereo unspecified) | 20 µM (inactive) | – | – | – | – | –
Cc1ccc(NC(=O)/C(Cc2cc(=O)oc3cc(O)ccc23)=N\NC(=O)C[N+](C)(C)C)cc1C | > 100 µM (inactive) | – | – | – | – | –
O=C(CP(=O)(O)O)c1cccs1 | – | > 100 µM (inactive) | > 100 µM (inactive) | > 100 µM (inactive) | > 100 µM (inactive) | GI50 (HOP-18): > 100 µM (inactive); GI50 (DMS-114): > 100 µM (inactive)
CC(=O)OCC(OC(C)=O)C(OC(C)=O)C(OC(C)=O)C(=O)CNn1c(-c2ccccc2)nc2ccc(Br)cc2c1=O (stereo unspecified) | – | > 100 µM (inactive) | – | > 100 µM (inactive) | > 100 µM (inactive) | GI50 (XF498): 21.2 µM (inactive); GI50 (DMS-114): > 100 µM (inactive)
COc1cc(C2c3cc4c(cc3OC(NNS(=O)(=O)c3ccc(C)cc3)C2C)OCO4)cc(OC)c1OC (stereo unspecified) | 3.32 µM (inactive) | – | – | – | – | –
CC(=O)N(N=O)c1ccc(N(N=O)C(C)=O)cc1 | – | > 100 µM (inactive) | > 100 µM (inactive) | > 100 µM (inactive) | > 100 µM (inactive) | GI50 (DMS-114): > 100 µM (inactive)
O=C1CCSC2=C1SCc1sccc12 | – | > 100 µM (inactive) | > 100 µM (inactive) | > 100 µM (inactive) | > 100 µM (inactive) | GI50 (XF498): > 100 µM (inactive); GI50 (DMS-114): > 100 µM (inactive)
O=C1CCCc2c(O)ccc(O)c21 | – | 93.5 µM (inactive) | > 100 µM (inactive) | > 100 µM (inactive) | > 100 µM (inactive) | GI50 (HOP-18): > 100 µM (inactive); GI50 (DMS-114): 19.9 µM (inactive)
C=CCCCCNC(=O)C[C@@H]1C2=C(CC[C@H]1O[Si](C)(C)C(C)(C)C)N1C(=O)CCC/C=C\C1C2 (stereo partly specified) | 16.6 µM (inactive) | – | – | – | – | –
O=C(Nc1ccc(Cl)cc1C(F)(F)F)C(=O)Nn1c(S)nc2ccccc2c1=O | > 100 µM (inactive) | – | – | – | – | –
COC(=O)c1c2c(c(-c3ccccc3)c3c1-c1nc(Cl)ccc1CC3)CCc1ccc(Cl)nc1-2 | – | > 100 µM (inactive) | > 100 µM (inactive) | 37.9 µM (inactive) | > 100 µM (inactive) | GI50 (RXF 631): > 100 µM (inactive); GI50 (HOP-18): > 100 µM (inactive)
COc1ccc2[nH]c3c(c2c1)CC(=O)N1CCCC(CC3O)C1 (stereo unspecified) | > 100 µM (inactive) | – | – | – | – | –

SMILES | GI50 (BT-549) | GI50 (M19-MEL) | GI50 (DLD-1) | GI50 (SNB-78) | GI50 (KM-20L2) | further results
CCOC(=O)CC1C(O)C(=O)N(C)C1c1ccccc1 (stereo unspecified) | > 100 µM (inactive) | – | – | – | – | –
COc1ccc(C(=O)/C=C/c2ccc(OCC(=N)N)cc2)cc1 | 17.9 µM (inactive) | – | – | – | – | –
Brc1c2c(c(Br)c3nsnc13)N=S=N2 | 12.3 µM (inactive) | – | – | – | – | –
c1ccc2sc(C3(N4CCC5(CC4)OCCO5)CCCCC3)cc2c1 | > 100 µM (inactive) | – | – | – | – | –
CCCCNC(=S)c1ccc(OC(=O)Nc2ccc(Cl)cc2)cc1 | 20.6 µM (inactive) | – | – | – | – | –
CCOC(=O)N(NC(=O)NC(C)C)c1ccccc1 | > 100 µM (inactive) | – | – | – | – | –
CC(=O)OCC1OC(N2C(S)=C(C#N)C(c3ccco3)C(C(C)=O)=C2c2ccccc2)C(OC(C)=O)C(OC(C)=O)C1OC(C)=O (stereo unspecified) | > 100 µM (inactive) | – | – | – | – | –
CNC(=O)OCC1=C(COC(=O)NC)C(C)N(c2ccc(OC)cc2)C1 (stereo unspecified) | > 100 µM (inactive) | – | – | – | – | –
O=C1CCc2nc3ncccc3cc2C1 | > 100 µM (inactive) | – | – | – | – | –
COc1cc2cc3c4c(cc(OC)c(OC)c4c2cc1OC)CCN3C(=O)OCCN1CCNCC1 | – | 6.95 µM (inactive) | 15.2 µM (inactive) | 16 µM (inactive) | 11.8 µM (inactive) | GI50 (XF498): 15.3 µM (inactive); GI50 (HOP-18): 17 µM (inactive)
c1ccc(CN2CCC(=NN3CCCCC3)CC2)cc1 | 43.5 µM (inactive) | – | – | – | – | –
C#CCCCOc1ncccn1 | > 100 µM (inactive) | – | – | – | – | –
O=C1CC(S(=O)(=O)O)C=C1Nc1cccc(Cl)c1 (stereo unspecified) | – | > 100 µM (inactive) | > 100 µM (inactive) | > 100 µM (inactive) | > 100 µM (inactive) | GI50 (XF498): > 100 µM (inactive); GI50 (HOP-18): > 100 µM (inactive)
Cc1ccc(C(=O)Nc2ccc(CP(=O)(O)O)cc2CP(=O)(O)O)cc1NC(=O)c1cccc(NC(=O)Nc2cccc(C(=O)Nc3cc(C(=O)Nc4ccc(CP(=O)(O)O)cc4CP(=O)(O)O)ccc3C)c2)c1 | > 100 µM (inactive) | – | – | – | – | –
C[C@H]1O[C@@H](O[C@H]2[C@@H](O)C[C@H](O[C@H]3[C@@H](O)C[C@H](O[C@H]4CC[C@@]5(C)[C@H](CC[C@@H]6[C@@H]5CC[C@]5(C)[C@@H](C7=CC(=O)OC7)[C@@H](O)C[C@]65O)C4)O[C@@H]3C)O[C@@H]2C)C[C@H](O)[C@@H]1O [GITOXIN] | 0.116 µM (active) | – | – | – | – | –
NC(=O)c1ncn2c(=O)n(CCCl)nnc12 [MITOZOLOMIDE] | 83.2 µM (inactive) | 172 µM (inactive) | 182 µM (inactive) | 185 µM (inactive) | 141 µM (inactive) | GI50 (XF498): 12.1 µM (inactive); GI50 (HOP-18): 323 µM (inactive); GI50 (DMS-114): 19.8 µM (inactive)
